From patent US20130203706A1, “COMPOUNDS AND METHODS FOR THE TREATMENT OR PREVENTION OF FLAVIVIRUS INFECTIONS” (Vertex Pharmaceuticals Incorporated, priority 2011, published 2013)

Assay: PK parameters of prodrugs after oral gavage to rats (plasma levels of prodrug and active metabolite by LC/MS/MS)
Assay type: in vivo
Settings: orally by gavage, 3 mg/kg, 0.5% MC/0.5% Tween 80/99% water, plasma up to 24 hrs post dose, FIGS. 3-5
Description: The prodrug whose PK parameters are to be determined can be formulated as a solution in 0.5% MC/0.5% Tween 80/99% water and administered orally by gavage to rats at a dose of 3 mg/kg. Rats are weighed the day before the study. Rat plasma is sampled predose and at 15, 30 min, 1, 2, 3, 4, 6, 8, 12 and 24 hrs post dose using Instech automatic blood sampling equipment. Blood is collected in tubes containing K2-EDTA and 110 uL plasma are extracted for analysis. Rats are fed ad lib and standard IACUC and SOP protocols are followed. Plasma samples and dose samples are analyzed using LC/MS/MS for both the prodrug compound and the active metabolite. PK parameters for both analytes for each subject are calculated using the measured dose of prodrug. The PK parameters of a prodrug of the invention (compound 10) was measured as described in the preceding paragraph, and are depicted in FIG. 3.

Row | SMILES | in vivo conversion of prodrug into active metabolite
1 | CC(C)C#Cc1cc(N(C(=O)[C@H]2CC[C@H](C)CC2)[C@H]2CC[C@H](OC(=O)[C@H](C)N)CC2)c(C(=O)O)s1 [Compound 11] | in vivo converted into their active metabolites
2 | C[C@@H](N)C(=O)O[C@H]1CC[C@H](N(c2cc(C#CC(C)(C)C)sc2C(=O)O)C(=O)[C@H]2CC[C@H](C)CC2)CC1 [Compound 10] | in vivo converted into the —OH active metabolite
3 | CC(C)[C@H](N)C(=O)O[C@H]1CC[C@H](N(c2cc(C#CC(C)(C)C)sc2C(=O)O)C(=O)[C@H]2CC[C@H](C)CC2)CC1 [Compound 1] | in vivo converted into their active metabolites
